Data reported in ChEMBL document CHEMBL4680225, “Design and development of ((4-methoxyphenyl)carbamoyl) (5-(5-nitrothiophen-2-yl)-1,3,4-thiadiazol-2-yl)amide analogues as Mycobacterium tuberculosis ketol-acid reductoisomerase inhibitors” (Eur J Med Chem, 2020).
In brackets after ≈: the same amount, converted by molar mass.

Tested on: Mycobacterium tuberculosis
Assay: Antitubercular activity against isoniazid-resistant Mycobacterium tuberculosis clinical isolate measured after 1 week by microplate alamar blue assay
Format: functional
Settings: 168 h, time 1 weeks

Row | SMILES | MIC [µM]
1 | CC(=O)c1ccc(S(=O)(=O)Nc2nnc(-c3ccc([N+](=O)[O-])o3)s2)cc1 | 12.5 (≈ 4.93 µg/mL)
2 | CO[C@H]1/C=C/O[C@@]2(C)Oc3c(C)c(O)c4c(O)c(c(/C=N/N5CCN(C)CC5)c(O)c4c3C2=O)NC(=O)/C(C)=C\C=C\[C@H](C)[C@H](O)[C@@H](C)[C@@H](O)[C@@H](C)[C@H](OC(C)=O)[C@@H]1C [RIFAMPIN] | 0.5 (≈ 0.411 µg/mL)
3 | O=[N+]([O-])c1ccc(-c2nnc(NC(=S)Nc3ccc(Cl)cc3)s2)s1 | 12.5 (≈ 4.97 µg/mL)
4 | O=[N+]([O-])c1ccc(-c2nnc(NC(=S)Nc3ccc(F)cc3)s2)o1 | 0.78 (≈ 0.285 µg/mL)
5 | COc1ccc(NC(=S)Nc2nnc(-c3ccc([N+](=O)[O-])s3)s2)cc1 | 0.2 (≈ 0.0787 µg/mL)
6 | NNC(=O)c1ccncc1 [ISONIAZID] | 12.5 (≈ 1.71 µg/mL)
7 | CC[C@@H](CO)NCCN[C@@H](CC)CO [ETHAMBUTOL] | 7.63 (≈ 1.56 µg/mL)
8 | COc1ccc(NC(=S)Nc2nnc(-c3ccc([N+](=O)[O-])o3)s2)cc1 | 7.81 (≈ 2.95 µg/mL)
